Results on two compounds are retold here after patent US20230060820A1, “OCTENIDINE SALT ANTIMICROBIAL MEDICAL ARTICLES” (3M INNOVATIVE PROPERTIES COMPANY, priority 2019, published 2023).

Counter-ions that a name gives are not always drawn. Like-named read-outs stand apart in the source and are kept apart here.

For data set [1] the following is noted: cited from earlier work; for Solubility: previous reports.
The conditions of data set [2]: higher than chlorhexidine; cited from earlier work.
Data set [3] in a line: Solubilization of octenidine hydrochloride in solvents (homogeneous solution). It counts as physicochemical. To be noted: for Homogeneous solution: 10% (w/w), room temperature 20-25° C. As to the method: Previous reports have shown that octenidine hydrochloride is soluble in both propylene glycol and ethylhexylglycerine, both of which are diol solvents. Hydrogen-bonding solvents with different functionalities were tested for their ability to solvate octenidine hydrochloride. Each solvent was combined with octenidine hydrochloride at 10% (w/w) with mixing at room temperature, i.e., 20-25° C. In some cases, sonication and/or heat were added to hasten dissolution.

With `N=C(NCCCCCCNC(=N)NC(=N)Nc1ccc(Cl)cc1)NC(=N)Nc1ccc(Cl)cc1.O=C(O)[C@H](O)[C@@H](O)[C@H](O)[C@H](O)CO.O=C(O)[C@H](O)[C@@H](O)[C@H](O)[C@H](O)CO` [chlorhexidine gluconate, Chlorhexidine digluconate], the Homogenous solution formation result in data set [1] (in glycol fatty monoesters, known) is “do not form homogenous solutions”.

As to `CCCCCCCCN=c1ccn(CCCCCCCCCCn2ccc(=NCCCCCCCC)cc2)cc1` [octenidine hydrochloride, Octenidine hydrochloride], the Solubility result is given as “soluble” in data set [1] (in ethylhexylglycerine); “soluble” in data set [1] (in propylene glycol); “soluble” in data set [3] (in glycol fatty monoesters); “insoluble” in data set [3] (in the glycol fatty diester); “insoluble” in data set [3] (in the monohydric alcohol). For the same compound, in data set [2], the “Antimicrobial efficacy relative to chlorhexidine” value is 3-10 times. Also, the Homogeneous solution entry in data set [3] (in 2-octyldodecanol) was “No”; in data set [3] (in glycerol monocaprylate), “Yes”; in data set [3] (in glycerol monoisostearate), “Yes”; in data set [3] (in lauramide diethanolamine), “Yes”; in data set [3] (in methoxyisopropanol), “Yes”; in data set [3] (in propylene glycol dicaprylate/caprate), “No”. Further, the Homogeneous solution entry in data set [3] (in propylene glycol monoheptanoate), in data set [3] (in propylene glycol monolaurate) and in data set [3] (in propylene glycol) was “Yes” each time.
